The record followed here is patent US11160782B2, “Method for producing nobiletin-containing solid dispersion” (KAO CORPORATION, priority 2016, dated 2021).

Series [1] in a line: Solubility in water at 25° C. of the poorly water-soluble raw material. The following applies: raw material (poorly water-soluble substance) of the composition.
The nature of series [2]: Transferability of nobiletin into blood circulation during oral administration to mice. The following applies: male, C57BL/6J, mouse, 200 mg/kg, plasma. In kind it is in vivo. An excerpt: [Evaluation of Transferability of Nobiletin into Blood Circulation During Oral Administration to Mice]
C57BL/6J mice (male, 6 week-old) were purchased from CLEA Japan, Inc. The mice were habituated to the environment for one week or more, and were fed to a test. Each of the test groups consisted of 8 mice, which was believed to be the minimum number required to ensure the statistical significance of the test system.
Mice were bred in the facility for one week under ad libitum feeding of solid food (CE-s), and the test was performed using the mice. The mice were fasted for 16 hours, and blood was initially collected from the orbital sinus of each mouse under isoflurane anesthesia (heparin-treated micro hematocrit blood collection tube, manufactured by VITREX Medical A/S). Each sample solution was then administrated into the stomach of the mice at a dose of 200 mg/kg weight per mouse using a probe. […]
The collected blood samples were centrifuged at 12,000 rpm for 10 minutes, and 30 μL of plasma in each sample was recovered into an Eppendorf tube. […] The nobiletin concentration in the plasma was measured by LC-MS/MS.
30 μL of acetonitrile was added to 30 μL of the recovered plasma, was stirred with a vortex mixer for 5 seconds, and was centrifuged at 12,000 rpm for 15 minutes at room temperature. […] The nobiletin concentration was then measured by LC-MS/MS.

Consider `O=c1oc2c(O)c(O)cc3c(=O)oc4c(O)c(O)cc1c4c23` [Ellagic acid, Ellagic acid dihydrate], for which the “Solubility in water at 25° C.” value in series [1] amounted to 4 ppm.
Still for that read-out and setting: for `COc1ccc([C@@H]2CC(=O)c3c(O)cc(O[C@@H]4O[C@H](CO[C@@H]5O[C@@H](C)[C@H](O)[C@@H](O)[C@H]5O)[C@@H](O)[C@H](O)[C@H]4O)cc3O2)cc1O` [Hesperidin] the value was 0.5 ppm.
Turning to `COc1ccc(-c2cc(=O)c3c(OC)c(OC)c(OC)c(OC)c3o2)cc1OC` [Nobiletin, 3′,4′,5,6,7,8-hexamethoxyflavone], in series [1], the “Solubility in water at 25° C.” value is reported as 1 ppm. For the same compound, the AUC in series [2] (read-out: AUC (area under the blood concentration transition curve) (converted)) was 5380 ng·h/mL. Further, in series [2] (read-out: Cmax (maximum blood concentration of nobiletin)), the Cmax turned out to be 3700 ng/mL.
